Earlier results on one compound are cited in patent US6992047B2, “Method of microencapsulating an agricultural active having a high melting point and uses for such materials” (Monsanto Technology LLC, priority 2001, dated 2006).

For this series the following is noted: at 20° C.

For `C=CCNC(=O)c1c([Si](C)(C)C)sc(C)c1C` [silthiopham, 4,5-dimethyl-N-(2-propenyl)-2-(trimethylsilyl)-3-thiophenecarboxamide], the water solubility is given as 35 ppm.
